The first assay has as its system SJSA-1 cells. The assay can be described thus: Protocol B: SJSA-1 CellTiter-Glo luminescent cell viability assay. The conditions noted are these: Homo sapiens, SJSA-1, read-out: SJSA1 IC50 (μM) (Protocol B), SJSA-1, Protocol B.
For orientation: IC50 means the concentration that inhibits the measured activity by half. For the molecule `Cn1cc(C(C)(O)c2cc(F)c3c(c2)C(=O)N(Cc2ccc(Cl)c[n+]2[O-])[C@@]3(OCC2(O)CC2)c2ccc(Cl)cc2)cn1` (stereo partly drawn) [Example 409, (3R)-2-[(5-chloro-1-oxo-1λ^5-pyridin-2-yl)methyl]-3-(4-chlorophenyl)-4-fluoro-6-[1-hydroxy-1-(1-methyl-1H-pyrazol-4-yl)ethyl]-3-[(1-hydroxycyclopropyl)methoxy]-2,3-dihydro-1H-isoindol-1-one], the IC50 amounted to 0.41 µM.
With `CC(C)(O)c1cc(F)c2c(c1)C(=O)N([C@@H](CO)c1ccc(Cl)cn1)[C@@]2(OCC1(CO)CC1)c1ccc(Cl)cc1` [Example 418, (3R)-3-(4-Chlorophenyl)-2-[(1R)-1-(5-chloropyridin-2-yl)-2-hydroxyethyl]-4-fluoro-3-{[1-(hydroxymethyl)cyclopropyl]methoxy}-6-(2-hydroxypropan-2-yl)-2,3-dihydro-1H-isoindol-1-one], the IC50 amounted to 0.28 µM.

Staying with this assay, now noted: Homo sapiens, SJSA-1, read-out: SJSA1 IC50 (μM), Protocol B, SJSA-1.
`CO[C@]1(c2ccc(Cl)cc2)c2c(F)cc(C(C)(O)C3CN(C(=O)N(C)C)C3)cc2C(=O)N1Cc1ccc(C#N)cn1` (stereo partly drawn) [Example 393, 3-{1-[(1R)-1-(4-chlorophenyl)-2-[(5-cyanopyridin-2-yl)methyl]-7-fluoro-1-methoxy-3-oxo-2,3-dihydro-1H-isoindol-5-yl]-1-hydroxyethyl}-N,N-dimethylazetidine-1-carboxamide]: the IC50 turned out to be 0.79 µM.
`O=C1c2cc(C(O)C3CCS(=O)(=O)CC3)cc(F)c2[C@](OCC2(O)CC2)(c2ccc(Cl)cc2)N1Cc1ncc(Cl)cn1` (stereo partly drawn) [Example 400, 4-{[(1R)-1-(4-chlorophenyl)-2-[(5-chloropyrimidin-2-yl)methyl]-7-fluoro-1-[(1-hydroxycyclopropyl)methoxy]-3-oxo-2,3-dihydro-1H-isoindol-5-yl](hydroxy)methyl}-1λ6-thiane-1,1-dione]: the IC50 worked out at 1.1 µM.

The same assay, now with this note: read-out: SJSA1 IC50; Protocol B, SJSA-1.
Take `[2H]C([2H])(O)C1(C([2H])([2H])O[C@]2(c3ccc(Cl)cc3)c3c(F)cc(C(O)(CC)c4cn(C)cn4)cc3C(=O)N2Cc2ccc(C#N)cn2)CC1` (stereo partly drawn) [Example 440, 6-{[(1R)-1-(4-chlorophenyl)-7-fluoro-1-({1-[hydroxy(^2H2)methyl]cyclopropyl}(^2H2)methoxy)-5-[1-hydroxy-1-(1-methyl-1H-imidazol-4-yl)propyl]-3-oxo-2,3-dihydro-1H-isoindol-2-yl]methyl}pyridine-3-carbonitrile]: the IC50 stood at 1.9 µM.
Still for that read-out and setting: for `CC(O)(c1cc(F)c2c(c1)C(=O)N(Cc1ncc(Cl)cn1)[C@@]2(O[C@H]1C[C@@H](O)C1)c1ccc(Cl)cc1)[C@H]1CC[C@H](O)CC1` (stereo partly shown) [Example 496] the value was 1.8 µM.

The next assay concerns SN40R2 cells. Nature of the assay: Protocol B: SN40R2 CellTiter-Glo luminescent cell viability assay. Conditions: 72 h, read-out: SN40R2 IC50 (μM) (Protocol B). In general terms: Cellular ATP, detected with luciferase, serves as a proxy for viable cell number.
For the molecule `CN1CCN(CC(C)(O)c2cc(F)c3c(c2)C(=O)N(Cc2ccc(Cl)cc2S(C)(=O)=O)[C@@]3(OC2CCOC2)c2ccc(Cl)cc2)CC1` (single isomer, unassigned) [Example 67], the IC50 worked out at 9.4 µM.

The assay is the same for the next values; noted with them: read-out: SN40R2 % inhibition at 10.
Broadly, the inhibition is the drop in the measured response relative to a control, in per cent. In the case of `C=CC(O)(c1cc(F)c2c(c1)C(=O)N(Cc1ccc(C#N)cn1)[C@@]2(O[C@H]1C[C@@H](O)C1)c1ccc(Cl)cc1)c1cnn(C)c1` (single isomer, unassigned) [Example 361], the inhibition at 10 µM was 8%.
Still for that read-out and setting: for `CC(=O)N1CCC(C(C)(O)c2cc(F)c3c(c2)C(=O)N(Cc2ncc(Cl)cn2)[C@@]3(O[C@H]2C[C@@H](O)C2)c2ccc(Cl)cc2)CC1` (single isomer, unassigned) [Example 425] the value was 7%; for `CO[C@]1(c2ccc(Cl)cc2)c2c(F)cc(C(C)(O)C3CCN(CC(=O)O)CC3)cc2C(=O)N1Cc1ccc(Cl)cn1` (single isomer, unassigned) [Example 459], 7%.
As to `CCC(O)(CN1CCNCC1)c1cc(F)c2c(c1)C(=O)N(Cc1ncc(Cl)cn1)[C@@]2(O[C@H]1CCOC1)c1ccc(Cl)cc1` (single isomer, unassigned) [Example 524], the inhibition at 10 µM is 35%.
In the case of `CCC(O)(CN1CC[C@@H](O)C1)c1cc(F)c2c(c1)C(=O)N(Cc1ncc(Cl)cn1)[C@@]2(O[C@H]1CCOC1)c1ccc(Cl)cc1` (single isomer, unassigned) [Example 526], the inhibition at 10 µM was 9%.
For the molecule `CC[C@@](O)(c1cc(F)c2c(c1)C(=O)N(Cc1ncc(Cl)cn1)[C@@]2(OC)c1ccc(Cl)cc1)C1CCN(CCO)CC1` (single isomer, unassigned) [Example 550], the inhibition at 10 µM was found to be 33%.
`CCC(O)(c1cc(F)c2c(c1)C(=O)N(Cc1ccc(C#N)cn1)[C@@]2(O[C@H]1C[C@@H](O)C1)c1ccc(Cl)cc1)c1cnn(C)c1` (stereo partly drawn) [Example 339, 6-{[(1R)-1-(4-chlorophenyl)-7-fluoro-5-[1-hydroxy-1-(1-methyl-1H-pyrazol-4-yl)propyl]-3-oxo-1-[cis-3-hydroxycyclobutoxy]-2,3-dihydro-1H-isoindol-2-yl]methyl}pyridine-3-carbonitrile]: the inhibition at 10 µM turned out to be 3%.
On to `CCC(O)(c1cc(F)c2c(c1)C(=O)N(Cc1ccc(C#N)cn1)[C@@]2(OCCO)c1ccc(Cl)cc1)c1cn(C)cn1` (stereo partly drawn) [Example 364, 6-{[(1R)-1-(4-chlorophenyl)-7-fluoro-5-[1-hydroxy-1-(1-methyl-1H-imidazol-4-yl)propyl]-1-(2-hydroxyethoxy)-3-oxo-2,3-dihydro-1H-isoindol-2-yl]methyl}pyridine-3-carbonitrile], for which the inhibition at 10 µM came out at 9%.

The same assay, now with this note: read-out: SN40R2 % inhibition at 10, Protocol B, SN40R2, at 10 μM.
Turning to `CCC(O)(c1cc(F)c2c(c1)C(=O)N(Cc1ncc(C#N)cn1)[C@@]2(O[C@H]1CCOC1)c1ccc(Cl)cc1)c1ccn(C)n1` (single isomer, unassigned) [Example 489], the inhibition at 10 µM was -9%.
Regarding `CCC(O)(c1cc(F)c2c(c1)C(=O)N(Cc1ncc(Cl)cn1)[C@@]2(OC[C@@H](C)O)c1ccc(Cl)cc1)C1(F)CCN(C)CC1` (single isomer, unassigned) [Example 572], the inhibition at 10 µM amounted to 23%.

The same assay, now with this note: read-out: SN40R2 IC50 (μM) (Protocol B).
For the molecule `CO[C@]1(c2ccc(Cl)cc2)c2c(F)cc(C(C)(O)C3CCN(c4ncccn4)CC3)cc2C(=O)N1Cc1ccc(Cl)cn1` (single isomer, unassigned) [Example 286], the IC50 came to 12 µM.
For the molecule `CN1CCC(C(C)(O)c2cc(F)c3c(c2)C(=O)N(Cc2ccc(Cl)cn2)[C@@]3(OCC2(C(N)=O)CC2)c2ccc(Cl)cc2)CC1` (single isomer, unassigned) [Example 306], the IC50 was found to be 13 µM.
On the same count and under the same terms, with `CO[C@]1(c2ccc(Cl)cc2)c2ccc(C(C)(O)CN3CCN(C)CC3)cc2C(=O)N1Cc1ccc(Cl)cn1` (stereo partly drawn) [Example 255, (3R)-3-(4-chlorophenyl)-2-[(5-chloropyridin-2-yl)methyl]-6-[2-hydroxy-1-(4-methylpiperazin-1-yl)propan-2-yl]-3-methoxy-2,3-dihydro-1H-isoindol-1-one] the figure was 7.1 µM.
Same read-out and setting: with `CO[C@]1(c2ccc(Cl)cc2)c2c(F)cc(C(C)(O)C3CCN(C)CC3)cc2C(=O)N1Cc1ccc(Cl)cn1` (stereo partly drawn) [Example 304, (3R)-3-(4-chlorophenyl)-2-[(5-chloropyridin-2-yl)methyl]-4-fluoro-6-[1-hydroxy-1-(1-methylpiperidin-4-yl)ethyl]-3-methoxy-2,3-dihydro-1H-isoindol-1-one] the figure was 9 µM; with `COc1nc(C)ccc1CN1C(=O)c2cc(C(C)(C)O)cc(F)c2[C@]1(OC)c1ccc(Cl)cc1` [Example 315, (3R)-3-(4-chlorophenyl)-4-fluoro-6-(2-hydroxypropan-2-yl)-3-methoxy-2-[(2-methoxy-6-methylpyridin-3-yl)methyl]-2,3-dihydro-1H-isoindol-1-one], 13 µM.
